# PubChem BioAssay (NCI)
#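 Values below derive from 48-hour exposures of cells grown in 96-well plates, with endpoints linearly interpolated between the two concentrations bracketing the appropriate inhibition level. GI50 = concentration required for 50% inhibition of growth. TGI marks complete inhibition of growth.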
# Columns and labels:
# Assay in all cases: NCI-60 cell line screen, 48 h
# 786-0 renal = system: 786-0 renal
# A498 renal = system: A498 renal
# A549 NSCLC = system: A549 NSCLC
# ACHN renal = system: ACHN renal
# BT-549 breast = system: BT-549 breast
# CAKI-1 renal = system: CAKI-1 renal
# CCRF-CEM leukemia = system: CCRF-CEM leukemia
# COLO 205 colon = system: COLO 205 colon
# DU-145 prostate = system: DU-145 prostate
# EKVX NSCLC = system: EKVX NSCLC
# HCC-2998 colon = system: HCC-2998 colon
# HCT-116 colon = system: HCT-116 colon
# HCT-15 colon = system: HCT-15 colon
# HL-60(TB) leukemia = system: HL-60(TB) leukemia
# HOP-62 NSCLC = system: HOP-62 NSCLC
# HOP-92 NSCLC = system: HOP-92 NSCLC
# HS 578T breast = system: HS 578T breast
# HT29 colon = system: HT29 colon
# IGROV1 ovarian = system: IGROV1 ovarian
# K-562 leukemia = system: K-562 leukemia
# KM12 colon = system: KM12 colon
# LOX IMVI melanoma = system: LOX IMVI melanoma
# M14 melanoma = system: M14 melanoma
# MALME-3M melanoma = system: MALME-3M melanoma
# MCF7 breast = system: MCF7 breast
# MDA-MB-231 breast = system: MDA-MB-231 breast
# MDA-MB-435 = system: MDA-MB-435
# MDA-MB-468 breast = system: MDA-MB-468 breast
# MOLT-4 leukemia = system: MOLT-4 leukemia
# NCI-H226 lung = system: NCI-H226 lung
# NCI-H23 lung = system: NCI-H23 lung
# NCI-H460 lung = system: NCI-H460 lung
# NCI-H522 lung = system: NCI-H522 lung
# NCI/ADR-RES ovarian = system: NCI/ADR-RES ovarian
# OVCAR-3 ovarian = system: OVCAR-3 ovarian
# OVCAR-4 ovarian = system: OVCAR-4 ovarian
# OVCAR-5 ovarian = system: OVCAR-5 ovarian
# OVCAR-8 ovarian = system: OVCAR-8 ovarian
# PC-3 prostate = system: PC-3 prostate
# RPMI-8226 leukemia = system: RPMI-8226 leukemia
# RXF 393 renal = system: RXF 393 renal
# SF-268 CNS = system: SF-268 CNS
# SF-295 CNS = system: SF-295 CNS
# SF-539 CNS = system: SF-539 CNS
# SK-MEL-2 melanoma = system: SK-MEL-2 melanoma
# SK-MEL-28 melanoma = system: SK-MEL-28 melanoma
# SK-MEL-5 melanoma = system: SK-MEL-5 melanoma
# SK-OV-3 ovarian = system: SK-OV-3 ovarian
# SN12C renal = system: SN12C renal
# SNB-19 CNS = system: SNB-19 CNS
# SNB-75 CNS = system: SNB-75 CNS
# SR leukemia = system: SR leukemia
# SW-620 colon = system: SW-620 colon
# T-47D breast = system: T-47D breast
# TK-10 renal = system: TK-10 renal
# U251 CNS = system: U251 CNS
# UACC-257 melanoma = system: UACC-257 melanoma
# UACC-62 melanoma = system: UACC-62 melanoma
# UO-31 renal = system: UO-31 renal
structure (smiles),measurement,setting,value
CC[C@@]12CC(C(=O)OC)=C3Nc4cc5c(cc4[C@@]34CCN(C[C@H]3O[C@H]31)[C@@H]24)[C@@H]1[C@H](O5)[C@@H](O)[C@@]2(CC)CC(C(=O)OC)=C3Nc4cc(O)ccc4[C@@]34CCN1[C@@H]24,GI50,786-0 renal,188 nM
same,TGI,786-0 renal,10000 nM
same,GI50,A498 renal,269 nM
same,TGI,A498 renal,2560 nM
same,GI50,A549 NSCLC,381 nM
same,TGI,A549 NSCLC,11100 nM
same,GI50,ACHN renal,363 nM
same,TGI,ACHN renal,12800 nM
same,GI50,BT-549 breast,370 nM
same,TGI,BT-549 breast,4050 nM
same,GI50,CAKI-1 renal,61.9 nM
same,TGI,CAKI-1 renal,6290 nM
same,GI50,CCRF-CEM leukemia,4380 nM
same,TGI,CCRF-CEM leukemia,56000 nM
same,GI50,COLO 205 colon,158 nM
same,TGI,COLO 205 colon,2280 nM
same,GI50,DU-145 prostate,1720 nM
same,TGI,DU-145 prostate,11500 nM
same,GI50,EKVX NSCLC,439 nM
same,TGI,EKVX NSCLC,16700 nM
same,GI50,HCC-2998 colon,145 nM
same,TGI,HCC-2998 colon,735 nM
same,GI50,HCT-116 colon,199 nM
same,TGI,HCT-116 colon,1760 nM
same,GI50,HCT-15 colon,173 nM
same,TGI,HCT-15 colon,1800 nM
same,GI50,HL-60(TB) leukemia,35.1 nM
same,TGI,HL-60(TB) leukemia,295 nM
same,GI50,HOP-62 NSCLC,156 nM
same,TGI,HOP-62 NSCLC,7580 nM
same,GI50,HOP-92 NSCLC,127 nM
same,TGI,HOP-92 NSCLC,11000 nM
same,GI50,HS 578T breast,105 nM
same,TGI,HS 578T breast,2860 nM
same,GI50,HT29 colon,142 nM
same,TGI,HT29 colon,7450 nM
same,GI50,IGROV1 ovarian,254 nM
same,TGI,IGROV1 ovarian,2930 nM
same,GI50,K-562 leukemia,134 nM
same,TGI,K-562 leukemia,7900 nM
same,GI50,KM12 colon,273 nM
same,TGI,KM12 colon,4520 nM
same,GI50,LOX IMVI melanoma,111 nM
same,TGI,LOX IMVI melanoma,542 nM
same,GI50,M14 melanoma,239 nM
same,TGI,M14 melanoma,19200 nM
same,GI50,MALME-3M melanoma,201 nM
same,TGI,MALME-3M melanoma,2640 nM
same,GI50,MCF7 breast,45.2 nM
same,TGI,MCF7 breast,6010 nM
same,GI50,MDA-MB-231 breast,117 nM
same,TGI,MDA-MB-231 breast,1900 nM
same,GI50,MDA-MB-435,191 nM
same,TGI,MDA-MB-435,8940 nM
same,GI50,MDA-MB-468 breast,55.3 nM
same,TGI,MDA-MB-468 breast,320 nM
same,GI50,MOLT-4 leukemia,768 nM
same,TGI,MOLT-4 leukemia,5320 nM
same,GI50,NCI-H226 lung,157 nM
same,TGI,NCI-H226 lung,7000 nM
same,GI50,NCI-H23 lung,278 nM
same,TGI,NCI-H23 lung,2370 nM
same,GI50,NCI-H460 lung,441 nM
same,TGI,NCI-H460 lung,7570 nM
same,GI50,NCI-H522 lung,51.5 nM
same,TGI,NCI-H522 lung,752 nM
same,GI50,NCI/ADR-RES ovarian,1110 nM
same,TGI,NCI/ADR-RES ovarian,3850 nM
same,GI50,OVCAR-3 ovarian,221 nM
same,TGI,OVCAR-3 ovarian,3580 nM
same,GI50,OVCAR-4 ovarian,232 nM
same,TGI,OVCAR-4 ovarian,14700 nM
same,GI50,OVCAR-5 ovarian,1330 nM
same,TGI,OVCAR-5 ovarian,15000 nM
same,GI50,OVCAR-8 ovarian,424 nM
same,TGI,OVCAR-8 ovarian,15700 nM
same,GI50,PC-3 prostate,380 nM
same,TGI,PC-3 prostate,18800 nM
same,GI50,RPMI-8226 leukemia,109 nM
same,TGI,RPMI-8226 leukemia,13700 nM
same,GI50,RXF 393 renal,763 nM
same,TGI,RXF 393 renal,3890 nM
same,GI50,SF-268 CNS,1300 nM
same,TGI,SF-268 CNS,13400 nM
same,GI50,SF-295 CNS,330 nM
same,TGI,SF-295 CNS,12700 nM
same,GI50,SF-539 CNS,322 nM
same,TGI,SF-539 CNS,11600 nM
same,GI50,SK-MEL-2 melanoma,876 nM
same,TGI,SK-MEL-2 melanoma,5270 nM
same,GI50,SK-MEL-28 melanoma,622 nM
same,TGI,SK-MEL-28 melanoma,15800 nM
same,GI50,SK-MEL-5 melanoma,154 nM
same,TGI,SK-MEL-5 melanoma,958 nM
same,GI50,SK-OV-3 ovarian,149 nM
same,TGI,SK-OV-3 ovarian,6220 nM
same,GI50,SN12C renal,439 nM
same,TGI,SN12C renal,10900 nM
same,GI50,SNB-19 CNS,277 nM
same,TGI,SNB-19 CNS,9060 nM
same,GI50,SNB-75 CNS,21.8 nM
same,TGI,SNB-75 CNS,1190 nM
same,GI50,SR leukemia,79.3 nM
same,TGI,SR leukemia,7690 nM
same,GI50,SW-620 colon,530 nM
same,TGI,SW-620 colon,5250 nM
same,GI50,T-47D breast,143 nM
same,TGI,T-47D breast,10400 nM
same,GI50,TK-10 renal,128 nM
same,TGI,TK-10 renal,3310 nM
same,GI50,U251 CNS,317 nM
same,TGI,U251 CNS,4770 nM
same,GI50,UACC-257 melanoma,199 nM
same,TGI,UACC-257 melanoma,6890 nM
same,GI50,UACC-62 melanoma,49.1 nM
same,TGI,UACC-62 melanoma,1170 nM
same,GI50,UO-31 renal,132 nM
same,TGI,UO-31 renal,6080 nM
